Assay results reported in patent publication US20150126364A1, “1,3-DIARYL-SUBSTITUTED HETEROCYCLIC PESTICIDES” (E I DU PONT DE NEMOURS AND COMPANY, priority 2012, published 2015).

Test system: potato leafhopper (Empoasca fabae)
Test: Test D: control of potato leafhopper on Soleil bean plant, contact and/or systemic
Type: in vivo
Settings: 144 h, 6 days, very good to excellent control, read-out: control efficacy: mortality; for mortality at 250 ppm: sprayed at 250 ppm; for mortality at 50 ppm: sprayed at 50 ppm
Procedure: Test compounds were formulated using a solution containing 10% acetone, 90% water and 300 ppm X-77® Spreader Lo-Foam Formula non-ionic surfactant containing alkylarylpolyoxyethylene, free fatty acids, glycols and isopropanol (Loveland Industries, Inc. Greeley, Colo., USA). The formulated compounds were applied in 1 mL of liquid through a SUJ2 atomizer nozzle with ⅛ JJ custom body (Spraying Systems Co., Wheaton, Ill., USA) positioned 1.27 cm (0.5 inches) above the top of each test unit. Test compounds were sprayed at 250 ppm and/or 50 ppm, and replicated three times. After spraying of the formulated test compound, each test unit was allowed to dry for 1 h and then a black, screened cap was placed on top. The test units were held for 6 days in a growth chamber at 25° C. and 70% relative humidity. Plant feeding damage was then visually assessed based on foliage consumed.
For evaluating control of potato leafhopper (Empoasca fabae) through contact and/or systemic means, the test unit consisted of a small open container with a 5-6-day-old Soleil bean plant (primary leaves emerged) inside. White sand was added to the top of the soil and one of the primary leaves was excised prior to application.
Test compounds were formulated and sprayed at 250 ppm and/or 50 ppm, and the tests were replicated three times as described for Test A. After spraying, the test units were allowed to dry for 1 h before they were post-infested with 5 potato leafhoppers (18-21-day-old adults). A black, screened cap was placed on the top of each test unit, and the test units were held for 6 days in a growth chamber at 24° C. and 70% relative humidity. Each test unit was then visually assessed for insect mortality.

Cn1c(-c2cccc(C(F)(F)F)c2)nc(CN2CCOCC2)c1-c1ccc(F)cc1F (single isomer, unassigned) [Compound 49, 4-[[5-(2,4-difluorophenyl)-1-methyl-2-[3-(trifluoromethyl)phenyl]-1H-imidazol-4-yl]methyl]morpholine]
mortality at 250 ppm: ≥ 80%

COC(=O)C1CCN(Cc2cc(-c3cccc(C(F)(F)F)c3)nn2-c2ccc(F)cc2)CC1 [Compound 6, methyl 1-[[1-(4-fluorophenyl)-3-[3-(trifluoromethyl)phenyl]-1H-pyrazol-5-yl]methyl]-4-piperidinecarboxylate]
mortality at 50 ppm: ≥ 80%
mortality at 250 ppm: ≥ 80%

Fc1ccc(-c2[nH]c(-c3cccc(C(F)(F)F)c3)nc2CN2CCOCC2)c(F)c1 [Compound 44, 4-[[5-(2,4-difluorophenyl)-2-[3-(trifluoromethyl)phenyl]-1H-imidazol-4-yl]methyl]morpholine]
mortality at 50 ppm: ≥ 80%
mortality at 250 ppm: ≥ 80%

CC(=O)NC1CCN(Cc2oc(-c3cccc(C(F)(F)F)c3)nc2-c2ccc(F)cc2)CC1 [Compound 65, N-[1-[[4-(4-fluorophenyl)-2-[3-(trifluoromethyl)phenyl]-5-oxazolyl]methyl]-4-piperidinyl]acetamide]
mortality at 50 ppm: ≥ 80%
mortality at 250 ppm: ≥ 80%

N#CC1CCN(Cc2c(-c3ccc(F)cc3F)nc3n2CCc2ccc(Cl)cc2-3)CC1 [Compound 151]
mortality at 250 ppm: ≥ 80%

N#CC1CCN(Cc2c(-c3ccc(F)cc3F)nc3n2CCc2cc(Cl)ccc2-3)CC1 [Compound 155]
mortality at 250 ppm: ≥ 80%
